# According to patent US9057054B2, “Antigen-specific long-term memory T-cells” (THE REGENTS OF THE UNIVERSITY OF MICHIGAN, priority 2009, dated 2015):
# Tests used:
# [1] = test system: P14 naive CD44loCD8+ T cells; test: In vitro priming of CFSE-labeled P14 naive CD8+ T cells with gp33-pulsed DCs, IL-2 and titrated rapamycin: cell counts, CFSE division, live cell ratio; format: cell-based, mouse; conditions: day 8 after culture, 50 or 100 nM rapamycin
# [2] = test system: antigen-primed CD8+ T cells; test: Oxygen consumption and lactate production assay, share of ATP from oxidative phosphorylation and glycolysis
# [3] = test system: antigen-primed CD8+ T cells; test: Secondary culture in the absence of IL-2 (IL-2 withdrawal), live cell ratio, with or without oligomycin; format: cell-based, mouse
smiles,measurement,setting,value
CO[C@H]1C[C@@H]2CC[C@@H](C)[C@@](O)(O2)C(=O)C(=O)N2CCCC[C@H]2C(=O)O[C@H]([C@H](C)C[C@@H]2CC[C@@H](O)[C@H](OC)C2)CC(=O)[C@H](C)/C=C(\C)[C@@H](O)[C@@H](OC)C(=O)[C@H](C)C[C@H](C)/C=C/C=C/C=C/1C [rapamycin],dead cells,[1],less than 5%
same,oxygen consumption increase versus IL-2 CD8+ T cells,[2]; cells collected 6 days after culture,2 fold
same,ATP derived from oxidative phosphorylation metabolism,[2]; share of total ATP generation,more than 90%
same,viable cells after IL-2 withdrawal,[3]; by 24 hours after IL-2 withdrawal,Approximately 100%
same,cells remaining lived after IL-2 withdrawal,[3]; by 74 hours after withdrawal,more than 60%
